The record followed here is patent US6242439A, “Azetidinone derivatives for the treatment of HCMV infections” (Boehringer Ingelheim (Canada) Ltd., priority 1998, dated 2001).

Like-named read-outs stand apart in the source and are kept apart here.

Data set [1] deals with HCMV (strain AD169, ATCC VR-538). Put plainly: Plaque Reduction Assay (PRA). The conditions noted are these: Hs-68 cells, approximately 50 PFU HCMV AD169, 8 days at 37°. Type of data set: cell-based, human cytomegalovirus (HCMV). As to the method:
B. Plaque Reduction Assay (PRA)
Hs-68 cells (ATCC #CRL 1635) were seeded in 12-well plates at 83,000 cells/well in 1 mL of DMEM medium (Gibco Canada Inc.) supplemented with 10% fetal bovine serum (FBS, Gibco Canada Inc.). The plates were incubated for 3 days at 37° to allow the cells to reach 80-90% confluency prior to the assay.
The medium was removed from the cells by aspiration. The cells were then infected with approximately 50 PFU of HCMV (strain AD169, ATCC VR-538) in DMEM medium supplemented with 5% inactivated FBS (assay medium). (DMEM medium is commercially available and has been described by R. Dulbecco et al., Virology 1959, 8, 396.) The virus was allowed to adsorb to cells for 2 h at 37°. Following viral adsorption, the medium was removed from the wells by aspiration. The cells were then incubated with or without 1 mL of appropriate concentrations of test reagent in assay medium. Occasionally, test compounds were added 24 h post-infection. After 4 days of incubation at 37°, the medium was exchanged with fresh medium containing test compound and 4 days later the cells were fixed with 1% aqueous formaldehyde and stained with a 2% violet solution in 20% ethanol in water. Microscopic plaques were counted using a stereomicroscope. Drug effects were calculated as a percent reduction in the number of plaques in the presence of each drug concentration compared to the number observed in the absence of drug. Ganciclovir was used as a positive control in all experiments.
In general terms: Plaque reduction counts the foci of infection that form in a cell layer.

The nature of data set [2]: Cytotoxic effects, tetrazolium salt (MTT) metabolic assay. Format: cell-based. The following applies: read-out: TC50 (the source's name). As to the method: In conjunction with the appropriate starting materials and intermediates, the procedures of examples 1 to 11 can be used to prepare other compounds of formula 1. Examples of compounds thus prepared are listed in the following Tables I, II and III together with mass spectrum data for the compounds, and results from the assays A and B of example 12. Cytotoxic effects noted as TC50 in the following tables were determined according to the tetrazolium salt (MTT) metabolic assay, F. Denizot and F. Lang, J. Immun. Meth., 1986, 89, 271.

A further data set has as its target HCMV NO protease (Human cytomegalovirus, UniProt P16753). Briefly: HCMV NO Protease Assay (inhibition of cleavage of internally quenched fluorogenic peptide substrate). Type of data set: biochemical. The conditions noted are these: 100 nM HCMV NO protease, 5 μM substrate, 2.5 h at 30°, pH 8. As to the method: This particular assay determines the ability of a test compound to inhibit the activity of HCMV protease. More specifically, in the assay described herein, the inhibitory activity of the test compound is evaluated on the basis of its ability to interfere with the HCMV No protease cleavage of a fluorogenic peptide substrate which in turn is based on the maturation cleavage site of the enzyme.
A. HCMV NO Protease Assay
Material & Methods: Fluorescence measurements were recorded on a Perkin-Elmer LS-50B spectrofluorimeter equipped with a plate reader accessory. UV measurements were recorded on a Thermomax® microplate reader from Molecular Devices Corporation, Menlo Park, Calif., USA.
HCMV NO protease was assayed with an internally quenched fluorogenic substrate based on the maturation cleavage site (Abz-[…](3-NO2)R--OH, kcat /KM =260 M^-1 s^-1). The fluorescence increase upon cleavage of the Ala-Ser amide bond was monitored using excitation λ=312 nm (slit 2.5 nm) and emission λ=415 nm (slit 5 nm). A protocol adaptable to a 96-well plate format was designed for the determination of IC50 values of inhibitors. […] After this period, enzymatic hydrolysis of the fluorogenic substrate in the absence of inhibitor led to about a 30% conversion. Quenching was not required before fluorescence measurement since the total scanning time by the plate reader accessory was brief relative to the duration of the reaction. The aqueous incubation buffer contained 50 mM tris(hydroxymethyl)aminomethane.HCl pH 8, 0.5M Na2 SO4, 50 mM NaCl, 0.1 mM EDTA, 1 mM tris(2-carboxyethyl)phosphine.HCl, 3% v/v DMSO and 0.05% w/v casein. The final concentrations of HCMV NO protease (expressed in terms of total monomer concentration) and substrate were 100 nM and 5 μM respectively. IC50 values were obtained through fitting of the inhibition curve to a competitive inhibition model using SAS NLIN procedure. The mode of inhibition was determined by measurements of the initial rates (in cuvettes) at various substrate concentrations in the buffer as described above. The IC50 values listed in the following tables the IC50 were obtained according to this assay.

The mark [3] stands for this setting: Human betaherpesvirus 5, AD169, Hs68, 192 h, read-out: EC50.

A word on the EC50: it is the midpoint of the concentration-response curve. In general, IC50 refers to the concentration needed to halve the response being measured. The low end stands for higher potency, the high end for lower potency.

HCMV NO protease, sequence (P16753 1-256): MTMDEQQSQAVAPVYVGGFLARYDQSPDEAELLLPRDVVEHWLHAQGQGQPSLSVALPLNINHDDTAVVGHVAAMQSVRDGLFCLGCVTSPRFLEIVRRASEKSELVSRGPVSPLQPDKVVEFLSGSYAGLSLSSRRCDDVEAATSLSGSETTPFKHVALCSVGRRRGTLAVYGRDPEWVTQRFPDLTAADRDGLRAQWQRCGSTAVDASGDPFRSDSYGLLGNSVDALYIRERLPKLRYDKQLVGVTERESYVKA

As to `CN(Cc1ccc([N+](=O)[O-])cc1)C(=O)N1C(=O)C[C@@H]1Cc1nc2ccccc2s1` [Entry 225], the EC50 in data set [1] (setting [3]) was found to be 30 µM. The CC50 in data set [2] was more than 50 µM. The 50% inhibitory concentration (IC50) against HCMV NO protease worked out at 0.7 µM.
The corresponding values for `CN(Cc1ccc(C(F)(F)F)cc1)C(=O)N1C(=O)CC1Cc1nnn(C)n1` (stereo in doubt) [Entry 223, 4(R)-(2-methyl-2H-tetrazol-5-ylmethyl)-2-oxoazetidine-1-carboxylic acid N-methyl-N{{(4-trifluoromethyl)phenyl}methyl}amide] are 94 µM, more than 195 µM and 5.7 µM.
The corresponding values for `CN(Cc1ccc(C#N)cc1)C(=O)N1C(=O)C[C@@H]1Cc1ccccc1` [Entry 145] are 120 µM, more than 250 µM and 6.1 µM.
In the case of `CN(Cc1ccc([N+](=O)[O-])cc1)C(=O)N1C(=O)C[C@@H]1Cc1ccccc1` [Entry 122], the 50% effective concentration (EC50) in data set [1] (setting [3]) is 105 µM. Also, the CC50 in data set [2] is more than 250 µM. Moreover, at HCMV NO protease, the half-maximal inhibitory concentration (IC50) turned out to be 1.5 µM.
With `CCC(NC(=O)N1C(=O)[C@@H](C)[C@@H]1Cc1ccccc1)c1ccncc1` (single isomer, unassigned) [Entry 205], the EC50 in data set [1] (read-out: EC50) was more than 250 µM. Besides, in data set [2], the CC50 was more than 250 µM. For the same compound, the IC50 against HCMV NO protease is 21 µM.
Take `CN(Cc1ccc(S(=O)(=O)C(F)(F)F)cc1)C(=O)N1C(=O)C[C@@H]1Cc1ccccc1` [Entry 139]: the concentration for a half-maximal effect (EC50) in data set [1] (setting [3]) is more than 250 µM. Also, in data set [2], the CC50 is more than 250 µM. In addition, the IC50 against HCMV NO protease came to 4.3 µM.
On to `CC(C)c1ccc(CN(C)C(=O)N2C(=O)C[C@@H]2Cc2ccccc2)cc1` [Entry 134], for which the half-maximal effective concentration (EC50) in data set [1] (setting [3]) came to 150 µM. Also, the CC50 in data set [2] worked out at 200 µM. Inhibition against HCMV NO protease was half-maximal at 6.4 µM (IC50).
The corresponding values for `C[C@@H]1C(=O)N(C(=O)NCc2ccccc2)[C@H]1Cc1ccccc1` [Entry 207, 4(S)-Benzyl-3(S)-methyl-2-oxoazetidine-1-carboxylic acid benzylamide] are 140 µM, more than 250 µM and 5.3 µM.
Consider `O=C1C[C@H](Cc2ccccc2)N1C(=O)NCc1ccc2c(c1)OCO2` [Entry 111], for which, in data set [1] (setting [3]), the EC50 was more than 150 µM. Moreover, the CC50 in data set [2] is more than 150 µM. On HCMV NO protease, it took 3.7 µM to reach half-maximal inhibition (IC50).
For the compound `CC(=O)Nc1ccc(CN(C)C(=O)N2C(=O)C[C@@H]2Cc2ccccc2)cc1` [Entry 132], in data set [1] (setting [3]), the concentration giving a half-maximal response (EC50) amounted to 150 µM. Also, the CC50 in data set [2] was more than 250 µM. The compound further displayed an IC50 on HCMV NO protease of 17 µM.
Regarding `CN(Cc1ccc([N+](=O)[O-])cc1)C(=O)N1C(=O)C[C@@H]1Cc1nnn(C)n1` [Entry 224], in data set [1] (setting [3]), the 50% effective concentration (EC50) was found to be 100 µM. Besides, the CC50 in data set [2] was more than 133 µM. The compound further displayed an IC50 at HCMV NO protease of 2.7 µM.
As for `CN(Cc1cccc([N+](=O)[O-])c1)C(=O)N1C(=O)C[C@@H]1Cc1ccccc1` [Entry 133], in data set [1] (setting [3]), the EC50 is 170 µM. The CC50 in data set [2] was more than 250 µM. At HCMV NO protease, the IC50 is 6.9 µM.
The corresponding values for `C[C@@H]1C(=O)N(C(=O)Nc2ccccc2)[C@H]1Cc1ccccc1` [Entry 203] are more than 250 µM, more than 250 µM and 0.81 µM.
Consider `CCCC(NC(=O)N1C(=O)CC1Cc1ccccc1)c1ccccc1` (stereo not drawn) [Entry 121], for which, in data set [1] (setting [3]), the 50% effective concentration (EC50) was 160 µM. Moreover, in data set [2], the CC50 is more than 250 µM. For the same compound, the midpoint of inhibition on HCMV NO protease, the IC50, lay at 3.4 µM.
With `O=C1C[C@H](Cc2ccccc2)N1C(=O)Nc1ccncc1` [Entry 107], in data set [1] (setting [3]), the EC50 is more than 250 µM. For the same compound, the CC50 in data set [2] was more than 250 µM. Moreover, the IC50 at HCMV NO protease came out at 1.9 µM.
On to `CN(Cc1ccc(SC(F)(F)F)cc1)C(=O)N1C(=O)C[C@@H]1Cc1ccccc1` [Entry 137], for which the EC50 in data set [1] (setting [3]) is more than 250 µM. Also, the CC50 in data set [2] is more than 250 µM. For the same compound, on HCMV NO protease, the half-inhibitory concentration (IC50) is 6.9 µM.
Turning to `CC[C@@H](NC(=O)N1C(=O)C[C@@H]1[C@@H](C)CC)c1ccccc1` [Entry 217], the EC50 in data set [1] (setting [3]) stood at 85 µM. In addition, in data set [2], the CC50 was more than 250 µM. For the same compound, on HCMV NO protease, the IC50 is 11 µM.
The corresponding values for `CN(Cc1ccc(C(F)(F)F)cc1)C(=O)N1C(=O)C[C@@H]1Cc1cccs1` [Entry 228] are more than 16 µM, more than 16 µM and 4.5 µM.
`CN(Cc1ccc(C(F)(F)F)cc1)C(=O)N1C(=O)C[C@@H]1Cc1nccs1` [Entry 231]: the EC50 in data set [1] stood at 11 µM. In data set [2], the CC50 is more than 25 µM. On HCMV NO protease, this compound showed a half-maximal inhibitory concentration (IC50) of 2.7 µM.
`COC(=O)c1ccc(CN(C)C(=O)N2C(=O)C[C@@H]2Cc2ccccc2)cc1` [Entry 131]: in data set [1] (setting [3]), the EC50 stood at 140 µM. Moreover, the CC50 in data set [2] is more than 250 µM. Also, the concentration for half-maximal inhibition (IC50) against HCMV NO protease was determined as 2.5 µM.
The corresponding values for `O=C1C[C@H](Cc2ccccc2)N1C(=O)NCc1ccncc1` [Entry 136, 4(S)-Benzyl-2-oxoazetidine-1-carboxylic acid (4-pyridinylmethyl) amide] are more than 250 µM, more than 250 µM and 13 µM.
The corresponding values for `CC[C@@H](NC(=O)N1C(=O)[C@@H](SC)[C@@H]1Cc1ccccc1)c1ccccc1` [Entry 209, 4(S)-Benzyl-3(S)-(methylthio)-2-oxoazetidine-1-carboxylic acid (1(R)-phenylpropyl)amide] are 27 µM, more than 250 µM and 4.7 µM.
For `CN(Cc1ccc([N+](=O)[O-])cc1)C(=O)N1C(=O)C[C@@H]1Cc1cccs1` [Entry 226] the same measures were 70 µM, more than 79 µM and 1.3 µM.
With `CN(Cc1ccc([N+](=O)[O-])cc1)C(=O)N1C(=O)C[C@@H]1Cc1ccco1` [Entry 229], in data set [1] (setting [3]), the EC50 is 143 µM. The CC50 in data set [2] was more than 261 µM. This compound registered a concentration for half-maximal inhibition (IC50) against HCMV NO protease of 3.1 µM.
The corresponding values for `O=C1C[C@H](Cc2ccccc2)N1C(=O)NCc1ccccc1` [Entry 116, 4(S)-Benzyl-2-oxoazetidine-1-carboxylic acid benzyl-amide] are 53 µM, more than 250 µM and 8.9 µM.
As for `CC[C@@H](C)[C@H]1CC(=O)N1C(=O)N[C@H](CC)c1ccccc1` [Entry 216], the half-maximal effective concentration (EC50) in data set [1] (setting [3]) was 110 µM. In addition, in data set [2], the CC50 was more than 250 µM. For the same compound, on HCMV NO protease, the IC50 was 4.4 µM.
As for `CN(Cc1ccc(C(F)(F)F)cc1)C(=O)N1C(=O)C[C@@H]1Cc1nc2ccccc2s1` [Entry 219], the EC50 in data set [1] (setting [3]) turned out to be 110 µM. For the same compound, the CC50 in data set [2] is more than 250 µM. Moreover, the half-inhibitory concentration (IC50) at HCMV NO protease was found to be 0.88 µM.
The corresponding values for `C[C@@H]1C(=O)N(C(=O)N(C)Cc2ccccc2)[C@H]1Cc1ccccc1` [Entry 208] are 150 µM, more than 250 µM and 4.2 µM.
For `C[C@@H](NC(=O)N1C(=O)C[C@@H]1Cc1ccccc1)c1cccc2ccccc12` [Entry 105] the same measures were more than 18 µM, more than 18 µM and 7.7 µM.
`CC[C@@H](NC(=O)N1C(=O)C[C@@H]1Cc1nnn(C)n1)c1ccccc1` [Entry 222]: the 50% effective concentration (EC50) in data set [1] (setting [3]) came out at 125 µM. In addition, the CC50 in data set [2] was more than 148 µM. In addition, the 50% inhibitory concentration (IC50) against HCMV NO protease turned out to be 5 µM.
For `CN(Cc1ccc(C(F)(F)F)cc1)C(=O)N1C(=O)C[C@@H]1Cc1ccco1` [Entry 221] the same measures were 59 µM, more than 100 µM and 7.1 µM.
